# Laboratory results published in ChEMBL document CHEMBL4421724, “2-benzoylaminobenzamide derivatives as bcl-3 inhibitors” (2016).
# The source made the active and inactive calls. The rule behind the calls is not given here.
# Assays:
# HEK293 = assay: Toxicity against HEK293 cells assessed as reduction in cell viability at 10 uM incubated for 24 hrs by cell titre blue viability assay relative to control; type: cell-based; conditions: human, hek293, 24 h
# MDA-MB-231 [1] = assay: Toxicity against human MDA-MB-231 cells assessed as reduction in cell viability at 10 uM incubated for 24 hrs by cell titre blue viability assay relative to control; type: cell-based; conditions: mda-mb-231, 24 h
# [2] = target: T1, B-cell lymphoma 3 protein (Homo sapiens) (UniProt P20749); assay: Inhibition of Bcl-3 in human MDA-MB-231 cells assessed as reduction in NF-kappaB signalling at 1 uM incubated for 24 hrs by NF-kappaB promoter dependent luciferase reporter gene assay; type: cell-based
# T1 sequence (whole entry): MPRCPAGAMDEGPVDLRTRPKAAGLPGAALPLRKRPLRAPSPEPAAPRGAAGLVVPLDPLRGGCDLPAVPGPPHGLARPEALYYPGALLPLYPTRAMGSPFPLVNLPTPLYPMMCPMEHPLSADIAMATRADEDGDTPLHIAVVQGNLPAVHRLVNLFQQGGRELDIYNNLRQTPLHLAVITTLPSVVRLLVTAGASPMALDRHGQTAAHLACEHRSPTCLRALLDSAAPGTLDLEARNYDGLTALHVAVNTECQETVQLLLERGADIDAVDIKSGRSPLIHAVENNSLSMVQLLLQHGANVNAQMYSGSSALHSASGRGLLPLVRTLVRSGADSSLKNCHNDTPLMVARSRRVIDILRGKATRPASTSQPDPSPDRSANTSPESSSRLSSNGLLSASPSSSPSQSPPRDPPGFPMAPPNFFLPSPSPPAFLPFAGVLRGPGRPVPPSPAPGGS
# MDA-MB-231 [3] = assay: Inhibition of cell migration of human MDA-MB-231 cells overexpressing Bcl-3 assessed as cell motility at 10 nM incubated for 24 hrs by Boyden chamber assay relative to control; type: functional; parameters: scale not given: the % may be the effect or the level left
# MDA-MB-231 [4] = assay: Inhibition of cell migration of human MDA-MB-231 cells overexpressing Bcl-3 assessed as reduction in cell motility incubated for 24 hrs by Boyden chamber assay; type: functional, cell-based; conditions: MDA-MB-231, 24 h
# [5] = Solubility in water assessed per 100 ml; type: physicochemical; conditions: buffer
# [6] = Solubility in methanol assessed per 100 ml; type: physicochemical
# [7] = Solubility in ethanol assessed per 100 ml; type: physicochemical
# [8] = Solubility in DMSO assessed per 100 ml; type: physicochemical
# [9] = Solubility in ethyl acetate assessed per 100 ml; type: physicochemical
# [10] = Solubility in dichloromethane assessed per 100 ml; type: physicochemical
# [11] = Solubility in diethyl ether assessed per 100 ml; type: physicochemical
Structure (SMILES),Activity (HEK293),Activity (MDA-MB-231 [1]),further results
O=C(Nc1ccccc1C(=O)NCCN1CCCCC1)c1ccccc1F,> 70%,> 70%,inhibition [2]: Active
O=C(Nc1ccccc1C(=O)NCCc1ccccn1)c1ccccc1F,> 70%,> 70%,–
O=C(Nc1ccc(I)cc1C(=O)NCCN1CCOCC1)c1ccccc1F,–,–,inhibition [2]: Active
NCCNC(=O)c1ccccc1NC(=O)c1ccccc1F,> 70%,> 70%,–
O=C(Nc1cccc(Cl)c1C(=O)NCCN1CCOCC1)c1ccccc1F,> 70%,> 70%,–
COc1ccc(C(=O)Nc2ccccc2C(=O)NCCN2CCOCC2)cc1,> 70%,> 70%,inhibition [2]: Active; Activity (MDA-MB-231 [3]): <50%
COc1cccc(C(=O)Nc2ccccc2C(=O)NCCN2CCOCC2)c1,> 70%,> 70%,–
O=C(Nc1ccccc1C(=O)NCN1CCCC1)c1ccccc1F,> 70%,> 70%,IC50 (MDA-MB-231 [4]): 3.65 µM
O=C(Nc1ccccc1C(=O)NCCN1CCOCC1)c1ccccc1F [listing 1 of 2 here],–,–,inhibition [2]: Active
COc1cccc(C(=O)NCCN2CCOCC2)c1NC(=O)c1ccccc1F,> 70%,> 70%,–
O=C(Nc1ccccc1C(=O)NCCN1CCOCC1)c1ccc([N+](=O)[O-])cc1,> 70%,> 70%,–
O=C(NCCN1CCOCC1)c1ccccc1NC(=O)c1ccccc1[N+](=O)[O-],> 70%,> 70%,–
COc1cc(OC)cc(C(=O)Nc2ccccc2C(=O)NCCN2CCOCC2)c1,> 90%,> 90%,–
O=C(Nc1ccccc1C(=O)NCCN1CCOCC1)c1ccccc1F [listing 2 of 2 here],> 70%,> 70%,solubility [5]: < 0.01 g; solubility [6]: 0.2 g; solubility [7]: 0.09 g; solubility [8]: 3.71 g; solubility [9]: 0.34 g; solubility [10]: 2.91 g; solubility [11]: 0.09 g
Cl.O=C(Nc1ccccc1C(=O)NCCN1CCOCC1)c1ccccc1F,–,–,solubility [5]: 0.95 g; solubility [6]: 0.59 g; solubility [7]: 0.19 g; solubility [8]: < 0.01 g; solubility [9]: 0.02 g; solubility [10]: 0.9 g; solubility [11]: 0.01 g
O=C(Nc1ccccc1C(=O)NCCCN1CCOCC1)c1ccccc1F,> 70%,> 70%,inhibition [2]: Active
COc1ccc(C(=O)Nc2ccccc2C(=O)NCCN2CCOCC2)cc1OC,> 90%,> 90%,–
O=C(Nc1ccccc1C(=O)NCCN1CCOCC1)c1ccc(F)cc1F,> 90%,> 90%,–
Cc1ccccc1C(=O)Nc1ccccc1C(=O)NCCN1CCOCC1,> 70%,> 70%,–
O=C(Nc1ccccc1C(=O)NCCN1CCOCC1)c1ccc(F)cc1,> 70%,> 70%,–
O=C(NCCN1CCOCC1)c1ccccc1NC(=O)c1c(F)cccc1F,> 90%,> 90%,–
Cc1cccc(C(=O)NCCN2CCOCC2)c1NC(=O)c1ccccc1F,> 70%,> 70%,–
O=C(Nc1ccccc1C(=O)NCCN1CCOCC1)c1cc(F)cc(F)c1,> 90%,> 90%,–
COc1cc(C(=O)Nc2ccccc2C(=O)NCCN2CCOCC2)cc(OC)c1OC,> 90%,> 90%,–
